The values below come from patent publication US20150080466A1, “DIPHENYL UREA DERIVATIVES AS FORMYL PEPTIDE RECEPTOR MODULATORS” (Allergan, Inc., priority 2013, published 2015).

In general, EC50 refers to the concentration giving half of the maximal effect.

The test addresses T1, FPR2 (Homo sapiens, UniProt P25090).
T1 construct: expressed in transfected cells
T1 sequence (P25090 1-351): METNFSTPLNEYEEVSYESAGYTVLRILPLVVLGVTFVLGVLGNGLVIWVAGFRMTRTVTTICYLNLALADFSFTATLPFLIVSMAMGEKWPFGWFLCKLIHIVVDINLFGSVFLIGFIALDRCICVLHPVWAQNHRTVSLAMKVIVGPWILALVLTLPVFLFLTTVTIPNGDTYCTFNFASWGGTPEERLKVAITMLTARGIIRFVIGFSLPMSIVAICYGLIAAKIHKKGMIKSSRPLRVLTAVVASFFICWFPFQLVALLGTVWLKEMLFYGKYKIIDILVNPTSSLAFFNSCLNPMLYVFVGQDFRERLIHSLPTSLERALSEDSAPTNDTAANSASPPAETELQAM
The experiment in a line: Compound-induced calcium activity on FLIPR Tetra in CHO-Gα16 cells stably expressing FPRL1. The test is classed as cell-based. The note with it: for FPR2 Ga16-CHO (Rel. eff.): relative efficacy; for EC50: tested at 0.61 to 10,000 nM, read-out: FPR2 Ga16-CHO EC50. How it is done: CHO-Gα16 cells stably expressing FPRL1 were cultured in (F12, 10% FBS, 1% PSA, 400 μg/ml geneticin and 50 μg/ml hygromycin) and HEK-Gqi5 cells stable expressing FPR1 were cultured in (DMEM high glucose, 10% FBS, 1% PSA, 400 μg/ml geneticin and 50 μg/ml hygromycin). In general, the day before the experiment, 18,000 cells/well were plated in a 384-well clear bottom poly-d-lysine coated plate. The following day the screening compound-induced calcium activity was assayed on the FLIPR^Tetra. The drug plates were prepared in 384-well microplates using the EP3 and the MultiPROBE robotic liquid handling systems. Compounds were tested at concentrations ranging from 0.61 to 10,000 nM. Results are expressed as EC50 (nM) and efficacy values.

Each structure is given as a SMILES string.

For the compound `O=C(O)CCc1ccccc1NC(=O)Nc1ccc(Br)cc1` [Compound 1, 3-(2-{[(4-Bromophenyl)carbamoyl]amino}phenyl)propanoic Acid], the “FPR2 Ga16-CHO (Rel. eff.)” value was “(1.00)” and the EC50 was found to be 1230 nM.

With `COC(=O)CCCNC(=O)CCc1ccccc1NC(=O)Nc1ccc(Br)cc1` [Compound 2, Methyl 4-{[3-(2-{[(4-Bromophenyl)carbamoyl]amino}phenyl)propanoyl]amino}butanoate], the “FPR2 Ga16-CHO (Rel. eff.)” value is listed as “(0.96)” and the EC50 turned out to be 922 nM.

As for `COC(=O)CCNC(=O)CCc1ccccc1NC(=O)Nc1ccc(Br)cc1` [Compound 3, Methyl3-{[3-(2-{[(4-bromophenyl)carbamoyl]amino}phenyl)propanoyl]amino}propanoate], the “FPR2 Ga16-CHO (Rel. eff.)” value is on record as “(1.00)” and the EC50 turned out to be 311 nM.

`O=C(O)CCCNC(=O)CCc1ccccc1NC(=O)Nc1ccc(Br)cc1` [Compound 4, 4-{[3-(2-{[(4-Bromophenyl)carbamoyl]amino}phenyl)propanoyl]amino}butanoic Acid]: the “FPR2 Ga16-CHO (Rel. eff.)” value is “(0.99)” and the EC50 is 2040 nM.

With `O=C(O)CCNC(=O)CCc1ccccc1NC(=O)Nc1ccc(Br)cc1` [Compound 5, 3-{[3-(2-{[(4-Bromophenyl)carbamoyl]amino}phenyl)propanoyl]amino}propanoic acid], the “FPR2 Ga16-CHO (Rel. eff.)” value is listed as “(1.00)” and the EC50 was determined as 637 nM.

Take `COC(=O)CNC(=O)CCc1ccccc1NC(=O)Nc1ccc(Br)cc1` [Compound 6, Methyl {[3-(2-{[(4-bromophenyl)carbamoyl]amino}phenyl)propanoyl]amino}acetate]: the “FPR2 Ga16-CHO (Rel. eff.)” value is listed as “(0.80)” and the EC50 stood at 180 nM.

Turning to `O=C(O)CNC(=O)CCc1ccccc1NC(=O)Nc1ccc(Br)cc1` [Compound 7, {[3-(2-{[(4-Bromophenyl)carbamoyl]amino}phenyl)propanoyl]amino}acetic acid], the “FPR2 Ga16-CHO (Rel. eff.)” value is “(0.76)” and the EC50 was 410 nM.
